Data reported in patent publication US8747882B2, “Catheter assembly with bactericidal effect” (Astra Tech AB, priority 2005, dated 2014).

System: Escherichia coli
Test: MIC (Minimum Inhibitory Concentration) test, bacterial growth inhibition in synthetic urine (Bioscreen optical density)
Type: cell-based
Conditions: mixed 1+3 with synthetic urine
Protocol: Experimental tests were conducted in order to verify the above-discussed results. In the experiments, solutions were prepared and sterilized by radiation (E-beam) or heat (autoclave). […] Further, some of the solutions were buffered to a predetermined pH-value with a citrate buffer (a buffer-system consisting of sodium citrates). All solutions were mixed with three volumetric parts synthetic urine in the experiments. Synthetic urine supports bacterial growth and were used as growth medium as well as negative control reference in the experiments. All experiments were made on the bacteria Escherichia coli, since the E. coli bacteria is normally the most relevant bacteria to inhibit for urinary catheter products. MIC (Minimum Inhibitory Concentration) tests were performed to assess the potential of a given substance and concentration to inhibit bacterial growth. The solutions were added to a growth solution containing a specified number of bacteria. The bacteria were then grown in microtiter-wells at 37 deg. C. in a Bioscreen-instrument for a period of at least 40 hours. The bacterial growth/inhibition was monitored in terms of optical density for the solution. Since all microorganisms increase the optical density of a solution during growth and multiplication, the Bioscreen measure of the transmittance/absorbance of light through the sample is correlated to the concentration of microorganisms. The results of the measurements of the different solutions are compared to a negative control reference, i.e. to synthetic urine, for each set of experiments.

[1] = 0.1% w/w, 850 mOsm, pH 6.5, no buffer
[2] = 0.3% w/w, 850 mOsm, pH 6.5, no buffer
[3] = 1.0% w/w, 850 mOsm, pH 6.5, no buffer

Structure (SMILES)	Result (index): inhibition time relative to synthetic urine (0.9% w/w, 900 mOsm, pH 6.5, no buffer)	Result (index): inhibition time relative to synthetic urine (3.0% w/w, 1700 mOsm, pH 6.5, no buffer)	Result (index): inhibition time relative to synthetic urine (0.05% w/w, 860 mOsm, pH 5.6, citrate buffer)	Result (index): inhibition time relative to synthetic urine (0.05% w/w, 860 mOsm, pH 5.9, citrate buffer)	Result (index): inhibition time relative to synthetic urine (0.05% w/w, 860 mOsm, pH 6.5, no buffer)	Result (index): inhibition time relative to synthetic urine (0.05% w/w, 870 mOsm, pH 5.0, citrate buffer)	Result (index): inhibition time relative to synthetic urine [1]	Result (index): inhibition time relative to synthetic urine [2]	Result (index): inhibition time relative to synthetic urine [3]	Result (index): inhibition time relative to synthetic urine (0.25% w/w, 860 mOsm, pH 5.0, citrate buffer)	Result (index): inhibition time relative to synthetic urine (0.25% w/w, 860 mOsm, pH 5.6, citrate buffer)	Result (index): inhibition time relative to synthetic urine (0.25% w/w, 860 mOsm, pH 5.9, citrate buffer)	Result (index): inhibition time relative to synthetic urine (0.25% w/w, 860 mOsm, pH 6.5, no buffer)
[Cl-].[Na+] [NaCl, sodium chloride, reference compound]	1.0 index	1.5 index	–	–	–	–	–	–	–	–	–	–	–
C/C=C/C=C/C(=O)[O-].[K+] [KS, Potassium Sorbate]	–	–	1.8 index	1.7 index	1.2 index	>8.0 index	3.8 index	5.0 index	5.3 index	–	–	–	–
O=C([O-])c1ccccc1.[Na+] [NaB, Sodium Benzoate]	–	–	–	–	–	–	2.3 index	4.0 index	5.3 index	>8.0 index	>8.0 index	>8.0 index	4.0 index
